Test results taken from ChEMBL document CHEMBL4385591, “Structural studies of the binding of an antagonistic cyclic peptide to the VEGFR1 domain 2” (Eur J Med Chem, 2019).
The source made the active and inactive calls. No cut-off for these calls is given here. Peptide text beside a SMILES is read from it.

How the values were obtained:
HUVEC = conditions: Homo sapiens, 50 uM
Description: Antiangiogenic activity in HUVEC cells assessed as inhibition of VEGF-A-induced microtube formation at 50 uM pre-incubated for 15 mins followed by VEGF-A stimulation for 4 hrs by matrigel based capillary tube formation assay

RF/6A = conditions: Macaca mulatta, 50 uM
Description: Antiangiogenic activity in rhesus monkey RF/6A cells assessed as inhibition of VEGF-A-induced microtube formation at 50 uM pre-incubated for 15 mins followed by VEGF-A stimulation for 4 hrs by matrigel based capillary tube formation assay

CC(C)C[C@@H]1NC(=O)CNC(=O)[C@H](CCC(=O)O)NC(=O)[C@H](CC(=O)O)NC(=O)[C@H](CCCCN)NC(=O)[C@H](Cc2ccc(O)cc2)NC(=O)CC[C@@H](C(=O)NCCc2ccc(O)c(O)c2)NC(=O)[C@H](CCC(=O)O)NC1=O (HELM PEPTIDE1{Y.K.D.E.G.L.E.E.[Oc1ccc(CCN[*:1])cc1O]}$PEPTIDE1,PEPTIDE1,1:R1-8:R3$$$V2.0)
inhibition (HUVEC): Active | inhibition (RF/6A): Active
